Results: patent US20070167412A1, “HALOCOMBSTATINS AND METHODS OF SYNTHESIS THEREOF” (ARIZONA BOARD OF REGENTS, priority 2003, published 2007)
≈ marks a conversion by molar mass, not a printed value.

Assays:
purified tubulin = tested on: T1, purified tubulin; assay: inhibition of tubulin polymerization (turbidimetry); format: biochemical; conditions: 10 μM tubulin, GTP 0.4 mM, 30° C., extent after 20 minutes; read-out: Inhibition of polymerization IC50 ± S.D.
T1 construct: other: 10 μM tubulin, GTP 0.4 mM, 30° C., extent after 20 minutes
Procedure: (§1) Tubulin polymerization was evaluated by turbidimetry at 350 nm using Beckman DU7400/7500 spectrophotometers as described in detail elsewhere. […] Varying concentrations of drug were preincubated with 10 μM:M ([…]) purified tubulin (See Hamel, E., et al., Separation of Active Tubulin and Microtubule-associated Proteins by Ultracentrifiigation and Isolation of a Component Causing the Formation of Microtubule Bundles, Biochemistry 1984, 23, 4173-4184). Samples were chilled on ice, GTP (0.4 mM) was added, and polymerization was followed at 30° C. The parameter measured was extent of the reaction after 20 minutes. Coichicine binding was measured as described in detail previously. Reaction mixtures contained 1.0 μM :M tubulin, 5.0:M, [^3H]colchicine (from Dupont), and inhibitor at 1.0 μM:M. Incubation was for 10 minutes at 37° C.
Tubulin Evaluations: Tubulin polymerization was evaluated by turbidimetry at […] using Beckman DU7400/7500 spectrophotometers as known to one of skill in the art. Varying concentrations of the compound were preincubated with 10 μM. […]

tubulin = assay: inhibition of [3H]colchicine binding to tubulin; conditions: 1.0 μM tubulin, 5.0 μM [3H]colchicine, inhibitor at 1.0 μM, 10 minutes at 37° C.
Procedure: as §1

Candida albicans = assay: reference broth microdilution susceptibility assay; format: cell-based; conditions: Table III
How it was run: (§2)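 Standardized microdilution in liquid medium; the aerobic-bacteria standard (M7-A5) applies to the bacterial species and the yeast standard (M27-A) to the fungal ones.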

Cryptococcus neoformans = assay: reference broth microdilution susceptibility assay; format: cell-based; conditions: Table III
How it was run: as §2

Enterobacter cloacae = assay: reference broth microdilution susceptibility assay; format: cell-based; conditions: Table III
How it was run: as §2

Enterococcus faecalis = assay: reference broth microdilution susceptibility assay; format: cell-based; conditions: Table III
How it was run: as §2

Escherichia coli = assay: reference broth microdilution susceptibility assay; format: cell-based; conditions: Table III
How it was run: as §2

Micrococcus luteus = assay: reference broth microdilution susceptibility assay; format: cell-based; conditions: Table III
How it was run: as §2

Neisseria gonorrhoeae = assay: reference broth microdilution susceptibility assay; format: cell-based; conditions: Table III
How it was run: as §2

Staphylococcus aureus = assay: reference broth microdilution susceptibility assay; format: cell-based; conditions: Table III
How it was run: as §2

[1] = tested on: Stenotrophomonas maltophilia; assay: reference broth microdilution susceptibility assay; format: cell-based; conditions: Table III
How it was run: as §2

Streptococcus pneumoniae = assay: reference broth microdilution susceptibility assay; format: cell-based; conditions: Table III
How it was run: as §2

KAT-4 = assay: human anaplastic thyroid carcinoma cell line inhibition; format: cell-based; conditions: Homo sapiens, KAT-4
Procedure: (§3) Inhibition of human cancer cell growth was assessed using the National Cancer Institute's standard sulforhodamine B assay. After 48 hours, the plates were fixed with trichloracetic acid, stained with sulforhodamine B and read with an automated microplate reader. A growth inhibition of 50% (GI50 or the drug concentration causing a 50% reduction in the net protein increase) was calculated from optical density data with Inmunosoft software. Inhibition of the mouse leukemia P388 cells was assessed in a 10% horse serum/Fisher medium soution for 24 hours, followed by a 48 hour incubation with serial dilutions of the compounds. Cell growth inhibition (ED50) was then calculated using a Z1 Becleman/Coulter particle counter.

SW1736 = assay: as above; format: cell-based; conditions: Homo sapiens, SW-1736
Procedure: as §3

[2] = tested on: human umbilical vein endothelial cells (HUVEC); assay: Matrigel cord formation assay; format: cell-based; parameters: key to Lengths of Cords: −: No Cords; +: Small; ++: ˜50% of Control; +++: Same as Control; conditions: 24 hours, compared to untreated controls
How it was run: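 HUVEC grown in EGM-2, seeded at 2×10^5 cells/ml onto polymerized Matrigel with test compounds. After 24 hours, cord length and junction number imaged and measured relative to untreated controls.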

[3] = tested on: human umbilical vein endothelial cells (HUVEC); assay: Matrigel cord formation assay; format: cell-based; parameters: key: −: No Junctions; +: Few; ++: ˜50% of Control; +++: Same as Control; conditions: 24 hours, compared to untreated controls
Procedure: In vitro Matrigel antiangiogenesis assays were implemented according to the Developmental Therapeutics Program NCI/NIH protocols known to one of skill in the art. Matrigel, a basement membrane matrix, was obtained from BD Biosciences. Growth inhibition and cord formation assays were Conducted using human umbilical vein endothelial cells obtained from GlycoTeCh. HUVEC cells were grown in EGM-2 medium.
An aliquot of sixty microliters was placed in each well of an ice-cold 96-well plate. The plates were then left for 15 minutes at room temperature, then incubated for 30 minutes at 37° C. to permit the matrigel to polymerize. Meanwhile, HUVEC cells were harvested and diluted to a concentration of 2×10^5 cells/ml. A solution of 100 μL containing the compounds to be tested was added next. After 24 hours incubation, pictures were taken for each concentration using an inverted Nikon Diaphot microscope and D100 digital camera. Drug effect was assessed, compared to untreated controls, by measuring the length of cords formed and number ofjunctions.

COc1ccc(/C=C\c2cc(I)c(OC)c(OC)c2)cc1O [Compound 14a, 3-Iodo-4,4′,5-trimethoxy-3′-hydroxy-z-stilbene]
IC50 (purified tubulin): 1600 ± 200 nM
Inhibition of colchicine binding % inhibition ± S.D. (tubulin): 84 ± 7%
Range of minimum inhibitory concentration, Candida albicans (Candida albicans): * (no inhibition at 64 μg/ml)
Range of minimum inhibitory concentration, Cryptococcus neoformans (Cryptococcus neoformans): 32 to 64 µg/mL
Range of minimum inhibitory concentration, Enterobacter cloacae (Enterobacter cloacae): * (no inhibition at 64 μg/ml)
Range of minimum inhibitory concentration, Enterococcus faecalis (Enterococcus faecalis): * (no inhibition at 64 μg/ml)
Range of minimum inhibitory concentration, Escherichia coli (Escherichia coli): * (no inhibition at 64 μg/ml)
Range of minimum inhibitory concentration, Micrococcus luteus (Micrococcus luteus): 16 to 32 µg/mL
Range of minimum inhibitory concentration, Neisseria gonorrhoeae (Neisseria gonorrhoeae): 16 to 32 µg/mL
Range of minimum inhibitory concentration, Staphylococcus aureus (Staphylococcus aureus): * (no inhibition at 64 μg/ml)
Range of minimum inhibitory concentration, Stenotrophomonas maltophilia [1]: * (no inhibition at 64 μg/ml)
Range of minimum inhibitory concentration, Streptococcus pneumoniae (Streptococcus pneumoniae): 64 µg/mL
GI50 (KAT-4): 0.089 to 0.14 µg/mL (≈ 0.216 to 0.34 µM)
GI50 (SW1736): 2.2 µg/mL (≈ 5.34 µM)
Lengths of Cords ([2]; 0.001 μg/ml): +
Lengths of Cords ([2]; 0.01 μg/ml): −
Number of junctions ([3]; 0.001 μg/ml): +
Number of junctions ([3]; 0.01 μg/ml): −
